The source of these data is US12084430B2, “Tricyclic urea compounds as JAK2 V617F inhibitors” (Incyte Corporation, priority 2022, dated 2024).

For assay [1], the system named is pSTAT5 signaling in SET-2 cells in whole blood. Kind of assay: pSTAT5 SET-2 whole blood MSD assay. In kind it is cell-based. The following applies: Homo sapiens, pSTAT5, 2 hour, read-out: SET2 WB IC50. Here is the method:
Example F. pSTAT5 SET-2 Whole Blood MSD Assay
SET-2 cells shipped from ABS, RPMI1640 medium, Fetal Bovine Serum from Gibco, Phospho-STAT5a,b Whole Cell Lysate Kit from Mesoscale, Retronectin (Recombinant Human Fibronectin Fragment) from TaKaRa, 96 well cell culture plate flat bottom from Corning, lysis buffer from Cell Signaling Technology, and sterile PBS from Gibco. Whole Blood from by BioIVT.
SET-2 cells were cultured in RPMI media with 20% FBS at 37° C. humidified incubator supplied with 5% CO2. On the day of the assay, 40 uL per well of diluted retronectin working solution was added to sterile 96-well clear flat bottom tissue culture plates (1:200 dilution of retronectin in sterile PBS) and incubated at 37 C for 1 hour. After 1 hour, the retronectin working solution was aspirated and SET-2 cells were seeded at 100,000/well in RPMI+20% FBS. Cells were incubated overnight at 37° C. and 5% CO2. The next day, the medium was removed and 40 μL of diluted compounds in serum-free RPMI and whole blood was added to the cells for a 2 hour incubation at 37° C. and 5% CO2. The compound starting concentration is 20 μM and 2.5 fold serial diluted down to 0.21 nM. The whole blood and compound mixture was then aspirated off using the BlueCat plate washer and washed 1× with PBS. Cells were lysed by adding 40 μL of 3× complete lysis buffer and shaken at room temperature for 45-60 minutes (complete lysis buffer consists of Cell Signaling Technology lysis buffer diluted to 3× and supplemented with Mesoscale's protease inhibitor, phosphatase I inhibitor, and phosphatase II inhibitor). The pSTAT5 MSD plates were blocked by adding 150 μL of Blocker A solution per well to the MSD plates and incubated at room temperature with shaking at 400 rpm for one hour or longer. After blocking, plates were washed 3× with 300 μL/well of IX Tris Wash Buffer. After lysis, added 25 μL per well of lysed sample was added to MSD plate and incubated with shaking at 4° C. wrapped in foil overnight. The next day, plates were washed again and 25 μL/well of diluted 1× Detection Antibody Solution, wrapped in foil, and incubated at room temperature with shaking at 400 rpm for 1 hour. Plates were then washed again and lastly, 150 μL/well of 1× Read Buffer T was added to all wells. Plates were analyzed on MSD Discovery within 5 minutes. […] Data analysis was performed in GraphPad Prism using a 4-parameter fit and data was reported as Average±SD.

Assay [2] concerns the target KIT (Homo sapiens, UniProt P10721). Kind of assay: KIT enzymatic assay. The following applies: 1 mM ATP. Type of assay: biochemical. How it is done:
(§1) Example D. KIT Enzymatic Assay
(§2) The kinase assays were carried out at room temperature in assay buffer (HEPES 50 mM, pH 7.0, NaN3 0.02%, BSA 0.01%, Orthovanadate 0.1 mM, DTT 1 mM, MgCl2 10 mM) in a final volume of 10 μL. Testing compounds were prepared by serial dilution in DMSO and transferred to the plate wells by ECHO liquid handler (Labcyte) with 0.5% DMSO in the final assay. […]. Reactions were initiated by the addition of 5 μL ATP in assay buffer. The final 10 μL kinase reaction consists of 0.12 nM KIT, 1 mM ATP, 500 nM TK Substrate-biotin and SEB reagent 62.5 nM in assay buffer. […] The plates were then sealed and centrifuged at 1800 rpm for 2 minutes. After 60 minutes incubation at room temperature, the product activity was determined by measuring the fluorescence at 620 nm and 665 nm on Pherastar microplate reader (BMG Labtech). A ratio is calculated (665/620 nm) for each well. Wells with DMSO only were served as the positive controls and wells containing no ATP were used as negative controls. IC50 determination was performed by fitting the curve of percent control activity versus the log of the compound concentration using the GraphPad Prism 7.0 software.

The subject of assay [3] is KIT. Description: KIT enzymatic assay. In kind it is biochemical. Here is the method:
as §1, §2

SMILES strings stand for the structures. Bounds are passed on as bounds.

KIT (Homo sapiens, UniProt P10721), sequence (P10721 26-976, species assumed): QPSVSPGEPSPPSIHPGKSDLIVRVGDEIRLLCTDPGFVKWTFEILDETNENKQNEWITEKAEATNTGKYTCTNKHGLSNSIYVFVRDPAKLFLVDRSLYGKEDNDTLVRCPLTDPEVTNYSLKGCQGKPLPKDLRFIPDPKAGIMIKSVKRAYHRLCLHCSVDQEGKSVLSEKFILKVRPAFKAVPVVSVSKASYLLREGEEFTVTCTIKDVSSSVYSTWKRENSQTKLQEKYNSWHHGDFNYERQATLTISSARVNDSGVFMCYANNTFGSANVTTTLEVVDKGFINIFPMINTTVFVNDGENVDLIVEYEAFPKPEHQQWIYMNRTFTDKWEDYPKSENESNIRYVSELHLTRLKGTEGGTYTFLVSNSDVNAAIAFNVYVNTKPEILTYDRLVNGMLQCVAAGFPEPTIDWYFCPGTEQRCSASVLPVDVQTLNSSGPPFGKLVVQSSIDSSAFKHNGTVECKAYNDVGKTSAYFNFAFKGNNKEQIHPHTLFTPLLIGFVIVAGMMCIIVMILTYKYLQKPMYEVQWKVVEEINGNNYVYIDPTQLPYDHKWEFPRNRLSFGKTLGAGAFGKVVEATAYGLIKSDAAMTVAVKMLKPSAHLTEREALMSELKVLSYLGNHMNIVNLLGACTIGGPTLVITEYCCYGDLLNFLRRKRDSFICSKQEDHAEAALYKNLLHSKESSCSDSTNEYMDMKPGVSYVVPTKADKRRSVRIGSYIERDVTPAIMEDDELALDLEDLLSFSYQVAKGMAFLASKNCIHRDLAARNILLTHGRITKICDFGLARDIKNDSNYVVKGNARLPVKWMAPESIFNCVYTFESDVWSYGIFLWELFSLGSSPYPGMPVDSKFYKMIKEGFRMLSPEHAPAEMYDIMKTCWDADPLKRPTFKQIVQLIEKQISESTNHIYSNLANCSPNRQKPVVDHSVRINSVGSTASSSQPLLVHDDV

The term IC50 denotes the midpoint of a concentration-inhibition curve. For `[2H]C([2H])([2H])n1cc(-c2[nH]c3ncc4c(c3c2-c2ccc3c(cnn3C([2H])([2H])[2H])c2)n([C@@H]2CC[C@@H](NC(=O)OC)C2)c(=O)n4C([2H])([2H])[2H])c(F)n1` [Example 6, Methyl ((1R,3R)-3-(7-(3-fluoro-1-(methyl-d3)-1H-pyrazol-4-yl)-3-(methyl-d3)-8-(1-(methyl-d3)-1H-indazol-5-yl)-2-oxo-3,6-dihydroimidazo[4,5-d]pyrrolo[2,3-b]pyridin-1(2H)-yl)cyclopentyl)carbamate], the IC50 in assay [1] was at most 2500 nM; on KIT [2], 250 to 1250 nM. For the same compound, the “Selectivity KIT/JH2 V617F” value with KIT [3] is reported as “**** (selectivity of >1750-fold to ≤5000-fold)”.
The like results for `[2H]C([2H])([2H])n1ncc2cc(-c3c(-c4cn(C([2H])(C([2H])([2H])[2H])C([2H])([2H])[2H])nc4F)[nH]c4ncc5c(c34)n([C@@H]3CC[C@@H](NC(=O)OC)C3)c(=O)n5C([2H])([2H])[2H])ccc21` [Example 21, Methyl ((1R,3R)-3-(7-(3-fluoro-1-(propan-2-yl-d7)-1H-pyrazol-4-yl)-3-(methyl-d3)-8-(1-(methyl-d3)-1H-indazol-5-yl)-2-oxo-3,6-dihydroimidazo[4,5-d]pyrrolo[2,3-b]pyridin-1(2H)-yl)cyclopentyl)carbamate] were, in that order, at most 2500 nM, 1250 to 2500 nM and “****** (selectivity of >12500-fold)”.
`[2H]C([2H])([2H])n1cc(-c2[nH]c3ncc4c(c3c2-c2ccc(C(C)(C)O)cc2)n([C@@H]2CC[C@@H](NC(=O)OC)C2)c(=O)n4C([2H])([2H])[2H])c(F)n1` [Example 10, Methyl ((1R,3R)-3-(7-(3-fluoro-1-(methyl-d3)-1H-pyrazol-4-yl)-8-(4-(2-hydroxypropan-2-yl)phenyl)-3-(methyl-d3)-2-oxo-3,6-dihydroimidazo[4,5-d]pyrrolo[2,3-b]pyridin-1(2H)-yl)cyclopentyl)carbamate]: the IC50 in assay [1] was at most 2500 nM; at KIT [2], 250 to 1250 nM. In addition, the “Selectivity KIT/JH2 V617F” value in the assay on KIT [3] is reported as “*** (selectivity of >1500-fold to ≤1750-fold)”.
Regarding `[2H]C([2H])([2H])n1ncc2cc(-c3c(-c4cn(C)nc4OC)[nH]c4ncc5c(c34)n([C@@H]3CC[C@@H](NC(=O)OC)C3)c(=O)n5C)ccc21` [Example 5, Methyl ((1R,3R)-3-(7-(3-methoxy-1-methyl-1H-pyrazol-4-yl)-3-methyl-8-(1-(methyl-d3)-1H-indazol-5-yl)-2-oxo-3,6-dihydroimidazo[4,5-d]pyrrolo[2,3-b]pyridin-1(2H)-yl)cyclopentyl)carbamate], the IC50 is at most 2500 nM in assay [1] and above 2500 nM against KIT [2]. For the same compound, the “Selectivity KIT/JH2 V617F” value in the assay with KIT [3] was “****** (selectivity of >12500-fold)”.
For the compound `[2H]C([2H])([2H])n1cc(-c2[nH]c3ncc4c(c3c2-c2cc(F)c3c(cnn3C([2H])([2H])[2H])c2)n([C@@H]2CC[C@@H](NC(=O)OC)C2)c(=O)n4C([2H])([2H])[2H])c(F)n1` [Example 17, Methyl ((1R,3R)-3-(8-(7-fluoro-1-(methyl-d3)-1H-indazol-5-yl)-7-(3-fluoro-1-(methyl-d3)-1H-pyrazol-4-yl)-3-(methyl-d3)-2-oxo-3,6-dihydroimidazo[4,5-d]pyrrolo[2,3-b]pyridin-1(2H)-yl)cyclopentyl)carbamate], the IC50 in assay [1] was at most 2500 nM; at KIT [2], 1250 to 2500 nM. Further, the “Selectivity KIT/JH2 V617F” value in the assay with KIT [3] was “****** (selectivity of >12500-fold)”.
`[2H]C([2H])([2H])n1c(=O)n([C@@H]2CC[C@@H](NC(=O)OC)C2)c2c3c(-c4ccc5c(c4)COC5(C)C)c(-c4cn(CC)nc4F)[nH]c3ncc21` [Example 20, Methyl ((1R,3R)-3-(8-(1,1-dimethyl-1,3-dihydroisobenzofuran-5-yl)-7-(1-ethyl-3-fluoro-1H-pyrazol-4-yl)-3-(methyl-d3)-2-oxo-3,6-dihydroimidazo[4,5-d]pyrrolo[2,3-b]pyridin-1(2H)-yl)cyclopentyl)carbamate]: the values for the IC50 (in assay [1]; at KIT [2]) were at most 2500 nM and above 2500 nM, respectively. Further, the “Selectivity KIT/JH2 V617F” value in the assay on KIT [3] is listed as “****** (selectivity of >12500-fold)”.
Regarding `[2H]C([2H])([2H])n1ncc2cc(-c3c(-c4cn(C)nc4OC)[nH]c4ncc5c(c34)n(C3CCOCC3)c(=O)n5C)ccc21` [B, reference compound], in assay [1], the IC50 was above 7500 nM. Further, the “Selectivity KIT/JH2 V617F” value with KIT [3] is reported as “** (selectivity of >500-fold to ≤1500-fold)”.
Consider `[2H]C([2H])([2H])n1cc(-c2[nH]c3ncc4c(c3c2-c2ccc(F)cc2)n([C@@H]2CC[C@@H](NC(=O)OC)C2)c(=O)n4C([2H])([2H])[2H])c(F)n1` [Example 7, Methyl ((1R,3R)-3-(7-(3-fluoro-1-(methyl-d3)-1H-pyrazol-4-yl)-8-(4-fluorophenyl)-3-(methyl-d3)-2-oxo-3,6-dihydroimidazo[4,5-d]pyrrolo[2,3-b]pyridin-1(2H)-yl)cyclopentyl)carbamate], for which the IC50 was 2500 to 5000 nM in assay [1] and 250 to 1250 nM against KIT [2]. Also, the “Selectivity KIT/JH2 V617F” value in the assay with KIT [3] is listed as “** (selectivity of >500-fold to ≤1500-fold)”.
For the compound `COC(=O)N[C@@H]1CC[C@@H](n2c(=O)n(C)c3cnc4[nH]c(-c5cn(C)nc5OC)c(-c5ccc(OC)c(F)c5)c4c32)C1` [Example 4, Methyl ((1R,3R)-3-(8-(3-fluoro-4-methoxyphenyl)-7-(3-methoxy-1-methyl-1H-pyrazol-4-yl)-3-methyl-2-oxo-3,6-dihydroimidazo[4,5-d]pyrrolo[2,3-b]pyridin-1(2H)-yl)cyclopentyl)carbamate], the values for the IC50 (in assay [1]; on KIT [2]) were at most 2500 nM and above 2500 nM, respectively. For the same compound, the “Selectivity KIT/JH2 V617F” value in the assay on KIT [3] was “****** (selectivity of >12500-fold)”.
Take `[2H]C([2H])([2H])n1c(=O)n([C@@H]2CC[C@@H](NC(=O)OC)C2)c2c3c(-c4ccc5c(c4)COC5(C)C)c(-c4cn(CC(F)F)nc4F)[nH]c3ncc21` [Example 12, Methyl ((1R,3R)-3-(7-(1-(2,2-difluoroethyl)-3-fluoro-1H-pyrazol-4-yl)-8-(1,1-dimethyl-1,3-dihydroisobenzofuran-5-yl)-3-(methyl-d3)-2-oxo-3,6-dihydroimidazo[4,5-d]pyrrolo[2,3-b]pyridin-1(2H)-yl)cyclopentyl)carbamate]: the IC50 in assay [1] was at most 2500 nM; at KIT [2] it was above 2500 nM. Besides, the “Selectivity KIT/JH2 V617F” value with KIT [3] was “****** (selectivity of >12500-fold)”.
Turning to `[2H]C([2H])([2H])n1cc(-c2[nH]c3ncc4c(c3c2-c2ccc3c(cnn3C(C)C)c2)n([C@@H]2CC[C@@H](NC(=O)OC)C2)c(=O)n4C([2H])([2H])[2H])c(F)n1` [Example 13, Methyl ((1R,3R)-3-(7-(3-fluoro-1-(methyl-d3)-1H-pyrazol-4-yl)-8-(1-isopropyl-1H-indazol-5-yl)-3-(methyl-d3)-2-oxo-3,6-dihydroimidazo[4,5-d]pyrrolo[2,3-b]pyridin-1(2H)-yl)cyclopentyl)carbamate], the results for the IC50 (in assay [1]; at KIT [2]) were at most 2500 nM and 250 to 1250 nM, respectively. Also, in the assay with KIT [3], the “Selectivity KIT/JH2 V617F” value is reported as “**** (selectivity of >1750-fold to ≤5000-fold)”.
With `COC(=O)N[C@@H]1CC[C@@H](n2c(=O)n(C)c3cnc4[nH]c(-c5cn(C)nc5OC)c(-c5cccc(F)c5)c4c32)C1` [Example 3, Methyl ((1R,3R)-3-(8-(3-fluorophenyl)-7-(3-methoxy-1-methyl-1H-pyrazol-4-yl)-3-methyl-2-oxo-3,6-dihydroimidazo[4,5-d]pyrrolo[2,3-b]pyridin-1(2H)-yl)cyclopentyl)carbamate], the IC50 fell in the range of 5000 to 7500 nM in assay [1] and 1250 to 2500 nM against KIT [2]. Also, the “Selectivity KIT/JH2 V617F” value in the assay with KIT [3] was “**** (selectivity of >1750-fold to ≤5000-fold)”.
`COc1nn(C)cc1-c1[nH]c2ncc3c(c2c1-c1ccc2c(cnn2C)c1)n([C@H]1CC[C@@H](CC#N)CC1)c(=O)n3C` [E, reference compound] yielded an IC50 against KIT [2] of 1250 to 2500 nM. In the assay on KIT [3], the “Selectivity KIT/JH2 V617F” value is reported as “*** (selectivity of >1500-fold to ≤1750-fold)”.
